Key:
[1] = system: velvetleaf; assay: Test A preemergence; format: in vivo, Abutilon theophrasti; conditions: Preemergence, 1000 g ai/ha; 0 to 100 scale, 0 no effect, 100 complete control
Procedure, shortened: (§1)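 Scoring was visual, on a scale where 100 means complete control and 0 means no effect, comparing treated with untreated plants around 10 days post-application. Compounds in surfactant-containing non-phytotoxic solvent were sprayed onto soil preemergence or onto one- to two-leaf seedlings (2–10 cm) postemergence.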

[2] = system: morningglory; assay: Test A postemergence; format: in vivo, Ipomoea spp.; conditions: Postemergence, 1000 g ai/ha; visual rating after approx. 10 days, 0 to 100 scale (0 no effect, 100 complete control)
Procedure, shortened: as §1

[3] = system: morningglory; assay: Test A preemergence; format: in vivo, Ipomoea spp.; conditions: Preemergence, 1000 g ai/ha; 0 to 100 scale, 0 no effect, 100 complete control
Procedure, shortened: as §1

[4] = system: pigweed; assay: Test A postemergence; format: in vivo, Amaranthus retroflexus; conditions: Postemergence, 1000 g ai/ha; visual rating after approx. 10 days, 0 to 100 scale (0 no effect, 100 complete control)
Procedure, shortened: as §1

[5] = system: barnyardgrass; assay: Test A postemergence; format: in vivo, Echinochloa crus-galli; conditions: Postemergence, 1000 g ai/ha; visual rating after approx. 10 days, 0 to 100 scale (0 no effect, 100 complete control)
Procedure, shortened: as §1

[6] = system: barnyardgrass; assay: Test A preemergence; format: in vivo, Echinochloa crus-galli; conditions: Preemergence, 1000 g ai/ha; 0 to 100 scale, 0 no effect, 100 complete control
Procedure, shortened: as §1

[7] = system: foxtail, giant; assay: Test A preemergence; format: in vivo, Setaria faberii; conditions: Preemergence, 1000 g ai/ha; 0 to 100 scale, 0 no effect, 100 complete control
Procedure, shortened: as §1

[8] = system: pigweed; assay: Test A preemergence; format: in vivo, Amaranthus retroflexus; conditions: Preemergence, 1000 g ai/ha; 0 to 100 scale, 0 no effect, 100 complete control
Procedure, shortened: as §1

[9] = system: crabgrass, large; assay: Test A postemergence; format: in vivo, Digitaria sanguinalis; conditions: Postemergence, 1000 g ai/ha; visual rating after approx. 10 days, 0 to 100 scale (0 no effect, 100 complete control)
Procedure, shortened: as §1

[10] = system: wheat; assay: Test A postemergence; format: in vivo, Triticum aestivum; conditions: Postemergence, 1000 g ai/ha; visual rating after approx. 10 days, 0 to 100 scale (0 no effect, 100 complete control)
Procedure, shortened: as §1

[11] = system: crabgrass, large; assay: Test A preemergence; format: in vivo, Digitaria sanguinalis; conditions: Preemergence, 1000 g ai/ha; 0 to 100 scale, 0 no effect, 100 complete control
Procedure, shortened: as §1

[12] = system: velvetleaf; assay: Test A postemergence; format: in vivo, Abutilon theophrasti; conditions: Postemergence, 1000 g ai/ha; visual rating after approx. 10 days, 0 to 100 scale (0 no effect, 100 complete control)
Procedure, shortened: as §1

[13] = system: wheat; assay: Test A preemergence; format: in vivo, Triticum aestivum
Procedure, shortened: as §1

[14] = system: foxtail, giant; assay: Test A postemergence; format: in vivo, Setaria faberii; conditions: Postemergence, 1000 g ai/ha; visual rating after approx. 10 days, 0 to 100 scale (0 no effect, 100 complete control)
Procedure, shortened: as §1

[15] = system: corn; assay: Test A postemergence; format: in vivo, Zea mays; conditions: Postemergence, 1000 g ai/ha; visual rating after approx. 10 days, 0 to 100 scale (0 no effect, 100 complete control)
Procedure, shortened: as §1

[16] = system: corn; assay: Test A preemergence; format: in vivo, Zea mays; conditions: Preemergence, 1000 g ai/ha; 0 to 100 scale, 0 no effect, 100 complete control
Procedure, shortened: as §1

[17] = Preemergence, 1000 g ai/ha, 0 to 100 scale, 0 no effect, 100 complete control
[18] = preemergence, 500 g ai/ha, visual injury after approx. 10 days, 0 to 100 scale (0 no effect, 100 complete control)

| Compound | Velvetleaf plant response rating [1] | Morningglory plant response rating [2] | Morningglory plant response rating [3] | Pigweed plant response rating [4] | Barnyardgrass plant response rating [5] | Barnyardgrass plant response rating [6] | Foxtail, Giant plant response rating [7] | Pigweed plant response rating [8] | Crabgrass, Large plant response rating [9] | Wheat plant response rating [10] | Crabgrass, Large plant response rating [11] | Velvetleaf plant response rating [12] | Wheat plant response rating [13, 17] | Foxtail, Giant plant response rating [14] | Corn plant response rating [15] | Corn plant response rating [16] | Wheat plant response rating [13, 18] |
| --- | --- | --- | --- | --- | --- | --- | --- | --- | --- | --- | --- | --- | --- | --- | --- | --- | --- |
| C#CCNC(=O)c1cc(CC)n(Cc2cccc(C(F)(F)F)c2)n1 [Compound 41] | 0 | 100 | 20 | 30 | 10 | 10 | 50 | 10 | 20 | 10 | 30 | 10 | 0 | 20 | 20 | 0 |  |
| CCc1cc(C(=O)N(C)CC)nn1Cc1cccc(C(F)(F)F)c1 [Compound 42] | 0 | 60 | 30 | 60 | 20 | 0 | 30 | 10 | 50 | 0 | 40 | 40 | 0 | 30 | 30 | 0 |  |
| CCc1cc(C(=O)NC(C)C)nn1Cc1cccc(C(F)(F)F)c1 [Compound 47] | 60 | 100 | 90 | 70 | 60 | 80 | 100 | 80 | 70 | 40 | 100 | 60 | 50 | 80 | 40 | 40 |  |
| CCc1cc(C(=O)NC(C)(C)C)nn1Cc1cccc(C(F)(F)F)c1 [Compound 50] | 0 | 10 | 0 | 30 | 10 | 10 | 30 | 0 | 10 | 0 | 10 | 10 | 0 | 30 | 20 | 0 |  |
| C#CCNC(=O)c1cc(CC)n(Cc2cccc(OC(F)(F)F)c2)n1 [Compound 54] | 0 | 70 | 0 | 70 | 10 | 10 | 20 | 90 | 10 | 10 | 40 | 60 | 0 | 10 | 20 | 0 |  |
| C=CCNC(=O)c1cc(CC)n(Cc2cccc(OC(F)(F)F)c2)n1 [Compound 58] | 0 | 50 | 20 | 60 | 20 | 10 | 20 | 70 | 30 | 0 | 70 | 50 | 0 | 20 | 20 | 0 | 0 |
| CCc1cc(C(=O)NC(C)(C)C)nn1Cc1cccc(OC(F)(F)F)c1 [Compound 59] | 0 | 50 | 0 | 50 | 10 | 0 | 10 | 0 | 10 | 0 | 10 | 10 | 0 | 20 | 10 | 0 | 10 |
| CCc1cc(C(=O)NCC(C)C)nn1Cc1cccc(OC(F)(F)F)c1 [Compound 60] | 0 | 100 | 20 | 60 | 20 | 30 | 100 | 90 | 30 | 20 | 90 | 60 | 0 | 40 | 30 | 0 | 0 |
| CCc1cc(C(=O)N(C)OC)nn1Cc1cccc(C(F)(F)F)c1 [Compound 66] | 20 | 50 | 30 | 50 | 20 | 0 | 100 | 50 | 20 | 10 | 50 | 40 | 0 | 40 | 30 | 0 | 0 |

Source: US20150105252A1, “SUBSTITUTED PYRAZOLES AS HERBICIDES” (E I DU PONT DE NEMOURS AND COMPANY, priority 2013, published 2015)
